# Results: ChEMBL document CHEMBL1201862, “PubChem BioAssay data set” (2004)
#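 The compound was tested at five concentrations on cells cultured in 96-well plates, with a 48-hour exposure period. Abbreviation: GI50, concentration required for 50% inhibition of growth.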 Activity calls are given as the source filed them. Rule as the data show it: active = GI50 up to about 1.1 µM and inactive = higher.
# What was measured:
# Assay in all cases: NCI tumour cell line growth inhibition, 48 h
# SK-OV-3 = system: SK-OV-3
# CCRF-CEM = system: CCRF-CEM
# SR = system: SR
# MCF7 = system: MCF7
# SK-MEL-5 = system: SK-MEL-5
# DU-145 = system: DU-145
# SF-268 = system: SF-268
# MDA-MB-231 = system: MDA-MB-231
# LOX IMVI = system: LOX IMVI
# HCT-15 = system: HCT-15
# NCI-H522 = system: NCI-H522
# NCI-H460 = system: NCI-H460
# SNB-75 = system: SNB-75
# SN12C = system: SN12C
# HT-29 = system: HT-29
# SK-MEL-2 = system: SK-MEL-2
# NCI/ADR-RES = system: NCI/ADR-RES
# 786-0 = system: 786-0
# HOP-92 = system: HOP-92
# SF-295 = system: SF-295
SMILES,GI50 (SK-OV-3),GI50 (CCRF-CEM),GI50 (SR),GI50 (MCF7),GI50 (SK-MEL-5),GI50 (DU-145),GI50 (SF-268),GI50 (MDA-MB-231),GI50 (LOX IMVI),GI50 (HCT-15) [µM],GI50 (NCI-H522),GI50 (NCI-H460),GI50 (SNB-75),GI50 (SN12C),GI50 (HT-29),GI50 (SK-MEL-2),GI50 (NCI/ADR-RES),GI50 (786-0),GI50 (HOP-92),GI50 (SF-295)
C=CCc1cccc2cc(C(=O)Nc3ccccc3)c(=N)oc12,61.7 µM (inactive),> 100 µM (inactive),> 100 µM (inactive),7.11 µM (inactive),21.7 µM (inactive),> 100 µM (inactive),> 100 µM (inactive),> 100 µM (inactive),> 100 µM (inactive),33.6,10.4 µM (inactive),63.2 µM (inactive),52.4 µM (inactive),55.8 µM (inactive),> 100 µM (inactive),8.47 µM (inactive),> 100 µM (inactive),30.3 µM (inactive),> 100 µM (inactive),–
N#Cc1c(C#N)c(-c2ccco2)n(-c2ccccc2)c1N,94.4 µM (inactive),> 100 µM (inactive),98.2 µM (inactive),5.94 µM (inactive),> 100 µM (inactive),> 100 µM (inactive),51.9 µM (inactive),31.7 µM (inactive),> 100 µM (inactive),> 100,> 100 µM (inactive),–,26.5 µM (inactive),> 100 µM (inactive),> 100 µM (inactive),> 100 µM (inactive),31.8 µM (inactive),83.4 µM (inactive),49.8 µM (inactive),> 100 µM (inactive)
Cc1c2c(c(C)c3c[n+](C)ccc13)Oc1ccccc1O2,23.5 µM (inactive),3.87 µM (inactive),–,9.12 µM (inactive),4.32 µM (inactive),22.9 µM (inactive),1.64 µM (inactive),24.6 µM (inactive),22.3 µM (inactive),> 62.2,4.42 µM (inactive),3.4 µM (inactive),5.28 µM (inactive),1.77 µM (inactive),20 µM (inactive),12.2 µM (inactive),> 100 µM (inactive),6.62 µM (inactive),34.8 µM (inactive),5.69 µM (inactive)
S=C(CSc1ccccc1)Nc1cccc2ccccc12,> 100 µM (inactive),–,22.5 µM (inactive),33.8 µM (inactive),18.5 µM (inactive),> 100 µM (inactive),61.1 µM (inactive),80.2 µM (inactive),50.6 µM (inactive),48.4,20.9 µM (inactive),29.9 µM (inactive),> 100 µM (inactive),45.7 µM (inactive),43.1 µM (inactive),24.3 µM (inactive),46 µM (inactive),41.7 µM (inactive),56.2 µM (inactive),23.8 µM (inactive)
OC(CC(O)(C(F)(F)F)C(F)(F)F)C(O)c1ccco1 (stereo not drawn),> 10 µM (inactive),> 10 µM (inactive),> 10 µM (inactive),> 10 µM (inactive),> 10 µM (inactive),> 10 µM (inactive),> 10 µM (inactive),> 10 µM (inactive),> 10 µM (inactive),> 10,> 10 µM (inactive),> 10 µM (inactive),> 10 µM (inactive),> 10 µM (inactive),> 10 µM (inactive),> 10 µM (inactive),> 10 µM (inactive),> 10 µM (inactive),–,> 10 µM (inactive)
COC(=O)C1(C(=O)OC)Cc2ccc(C)cc2C2=C1C(=O)c1ccccc1C2=O,–,15.2 µM (inactive),24.2 µM (inactive),15 µM (inactive),15 µM (inactive),20.2 µM (inactive),16 µM (inactive),16.7 µM (inactive),14.9 µM (inactive),12.6,15.1 µM (inactive),40.6 µM (inactive),12.8 µM (inactive),19.8 µM (inactive),21.7 µM (inactive),11.7 µM (inactive),12.6 µM (inactive),26.4 µM (inactive),20 µM (inactive),21.2 µM (inactive)
CN(C)Cc1cc(C(=O)/C=C/c2ccc([N+](=O)[O-])cc2)cc(CN(C)C)c1O,–,3.3 µM (inactive),4.12 µM (inactive),13.3 µM (inactive),11.3 µM (inactive),11 µM (inactive),16 µM (inactive),14.9 µM (inactive),2.24 µM (inactive),10.1,4.74 µM (inactive),–,2.97 µM (inactive),7.8 µM (inactive),9.04 µM (inactive),11.1 µM (inactive),26.7 µM (inactive),2.31 µM (inactive),8.83 µM (inactive),22.3 µM (inactive)
CC(C)(C)C1=C(Br)C(O)(C(C)(C)C)OP1(=O)c1ccccc1 (stereo not drawn),> 100 µM (inactive),> 100 µM (inactive),–,0.805 µM (active),> 100 µM (inactive),> 100 µM (inactive),> 100 µM (inactive),> 100 µM (inactive),> 100 µM (inactive),> 100,> 100 µM (inactive),> 100 µM (inactive),> 100 µM (inactive),> 100 µM (inactive),> 100 µM (inactive),> 100 µM (inactive),> 100 µM (inactive),> 100 µM (inactive),> 100 µM (inactive),> 100 µM (inactive)
C[N+]1(C)CC[N+](C)(C)[BH-]1C(O)O,–,> 100 µM (inactive),> 100 µM (inactive),> 100 µM (inactive),> 100 µM (inactive),> 100 µM (inactive),> 100 µM (inactive),> 100 µM (inactive),> 100 µM (inactive),> 100,> 100 µM (inactive),> 100 µM (inactive),0.376 µM (active),> 100 µM (inactive),> 100 µM (inactive),> 100 µM (inactive),> 100 µM (inactive),> 100 µM (inactive),> 100 µM (inactive),> 100 µM (inactive)
CC(=O)O[C@@]12CO[C@@H]1C[C@@H](O)[C@@]1(C)C(=O)[C@H](O)C3=C(C)[C@@H](OC(=O)[C@H](O)[C@@H](NC(=O)c4ccccc4)c4ccccc4)C[C@@](O)([C@@H](OC(=O)c4ccccc4)C12)C3(C)C (stereo partly drawn),0.026 µM (active),0.0103 µM (active),0.0438 µM (active),< 0.01 µM (active),–,0.0301 µM (active),0.0594 µM (active),0.0408 µM (active),< 0.0303 µM (active),3.03,< 0.0122 µM (active),0.0217 µM (active),< 0.01 µM (active),0.0184 µM (active),< 0.01 µM (active),< 0.01 µM (active),20.8 µM (inactive),0.0628 µM (active),–,0.268 µM (active)
O=C(CC(C(=O)c1cccs1)c1cccs1)c1ccccc1Cl (stereo not drawn),> 100 µM (inactive),> 100 µM (inactive),39.5 µM (inactive),> 100 µM (inactive),> 100 µM (inactive),> 100 µM (inactive),> 100 µM (inactive),> 100 µM (inactive),> 100 µM (inactive),94.8,–,77.1 µM (inactive),> 100 µM (inactive),> 100 µM (inactive),76.6 µM (inactive),> 100 µM (inactive),33.5 µM (inactive),> 100 µM (inactive),–,> 100 µM (inactive)
C[N+]1(c2ccccc2)C=C(c2ccccc2)SC1=S (stereo not drawn),–,–,> 100 µM (inactive),41.7 µM (inactive),33.4 µM (inactive),3.9 µM (inactive),> 100 µM (inactive),> 100 µM (inactive),> 100 µM (inactive),> 100,30.6 µM (inactive),95.7 µM (inactive),–,> 100 µM (inactive),7.43 µM (inactive),58.3 µM (inactive),> 100 µM (inactive),> 100 µM (inactive),–,> 100 µM (inactive)
COC(=O)CCC1=NCC(C)(C)O1,> 10 µM (inactive),> 10 µM (inactive),> 10 µM (inactive),> 10 µM (inactive),> 10 µM (inactive),> 10 µM (inactive),> 10 µM (inactive),> 10 µM (inactive),> 10 µM (inactive),> 10,> 10 µM (inactive),> 10 µM (inactive),2.79 µM (inactive),> 10 µM (inactive),> 10 µM (inactive),> 10 µM (inactive),> 10 µM (inactive),> 10 µM (inactive),–,> 10 µM (inactive)
COc1cc(OC)c(/C=C\c2ccnc3ccccc23)c(OC)c1,6.44 µM (inactive),1.7 µM (inactive),0.689 µM (active),0.569 µM (active),1.7 µM (inactive),5.37 µM (inactive),5.97 µM (inactive),3.05 µM (inactive),2.73 µM (inactive),0.794,3.76 µM (inactive),3.2 µM (inactive),–,4.71 µM (inactive),2.67 µM (inactive),3.88 µM (inactive),2.07 µM (inactive),5.53 µM (inactive),3.51 µM (inactive),2.53 µM (inactive)
CSc1c(C#N)c(O)n(-c2ccc(Cl)cc2)c(=O)c1C#N,> 100 µM (inactive),–,> 100 µM (inactive),64.6 µM (inactive),> 100 µM (inactive),> 100 µM (inactive),> 100 µM (inactive),> 100 µM (inactive),14 µM (inactive),97.9,40.5 µM (inactive),> 100 µM (inactive),> 100 µM (inactive),> 100 µM (inactive),> 100 µM (inactive),> 100 µM (inactive),77.3 µM (inactive),> 100 µM (inactive),30.8 µM (inactive),–
